Measurements published in patent US9080214B2, “Genetic markers for efficacy of iloperidone in the treatment of psychotic symptoms” (Vanda Pharmaceuticals, Inc., priority 2007, dated 2015).

System: individuals diagnosed with schizophrenia
Experiment: Change in PANSS-P subscale by SNP genotype, patients on iloperidone 24 mg/day b.i.d. for 28 days (MMRM)
Format: in vivo, human
Excerpt: Earlier studies investigated an association between a polymorphism in the CNTF gene and iloperidone efficacy as well as associations between CYP2D6 and KCNQ1 genotypes and changes in QT interval following the administration of iloperidone. The present study involved the genotyping of DNA samples collected from 426 individuals diagnosed with schizophrenia in an attempt to identify additional SNPs associated with iloperidone efficacy. Each sample was genotyped at more than 500,000 SNP loci using the GeneChip® Human Mapping 500K Array Set (Affymetrix, Santa Clara, Calif.) and using assays developed in-house. Approximately half of the participants in the study were administered 24 mg/day of iloperidone, b.i.d., for 28 days. About 25% of the patients were administered ziprasidone. The remaining participants were administered a placebo. Three analyses of the PANSS-T were conducted. 1) A two-step approach where samples were randomly split into 2 groups of iloperidone-treated patients used to discover SNPs associated with changed in PANSS-T (Discovery phase) and a second group to confirm the 100 most significant SNPs (Confirmatory phase). 2) A one-step approach using the Last Observation Carried Forward (LOCF) PANSS-T data of all iloperidone-treated patients. For each SNP, the most parsimonious genetic model (e.g., homozygous for one allele v. all other genotypes [i.e., AA v. AB and BB], heterozygous v. homozygous [i.e., AB v. AA and BB]) was established with respect to iloperidone efficacy using a one-way analysis of variance (ANOVA). 3) A Mixed-effects Model Repeated Measures (MMRM) analysis was subsequently conducted using the best genetic model of each SNP in the MMRM model. MMRM analyses were also conducted with the PANSS subscales PANSS-P, PANSS-N, and PANSS-GP. The SNPs with a statistically significant association in all 3 analyses of PANSS-T, as well as the best of each analysis were considered significant findings and are listed below in Table 1. Results for each of these SNPs with the PANSS-T scales and with the three subscales PANSS-P, PANSS-N, and PANSS-GP are shown in Tables 2, 3, 4, and 5, respectively. […] In the present case of iloperidone efficacy, it is likely that different markers are more specifically associated with one or a few specific clinical symptoms, which is reflected in the improvement measured in separate subscales.

## COc1cc(C(C)=O)ccc1OCCCN1CCC(c2noc3cc(F)ccc23)CC1 [iloperidone, 1-[4-[3-[4-(6-fluoro-1,2-benzisoxazol-3-yl)-1-piperidinyl]propoxy]-3-methoxyphenyl]ethanone]
SNP_A-1819750 (CREG1) genotype A_A
  mean of change in PANSS-P: −5.31
SNP_A-1819750 (CREG1) genotype A_B*
  mean of change in PANSS-P: −4.28
SNP_A-1819750 (CREG1) genotype B_B
  mean of change in PANSS-P: −5.02
SNP_A-1819750 (CREG1) genotype nonAB**
  mean of change in PANSS-P: −5.11
SNP_A-1860353 (RAP1B) genotype A_A**
  mean of change in PANSS-P: −9.20
SNP_A-1860353 (RAP1B) genotype A_B
  mean of change in PANSS-P: −4.42
SNP_A-1860353 (RAP1B) genotype B_B
  mean of change in PANSS-P: −4.28
SNP_A-1860353 (RAP1B) genotype nonAA*
  mean of change in PANSS-P: −4.30
SNP_A-1934663 genotype A_A
  mean of change in PANSS-P: −5.65
SNP_A-1934663 genotype A_B
  mean of change in PANSS-P: −5.78
SNP_A-1934663 genotype B_B*
  mean of change in PANSS-P: −3.40
SNP_A-1934663 genotype nonBB**
  mean of change in PANSS-P: −5.75
SNP_A-1973093 (KIAA0040) genotype A_A
  mean of change in PANSS-P: −5.12
SNP_A-1973093 (KIAA0040) genotype A_B*
  mean of change in PANSS-P: −2.58
SNP_A-1973093 (KIAA0040) genotype B_B
  mean of change in PANSS-P: −5.64
SNP_A-1973093 (KIAA0040) genotype nonAB**
  mean of change in PANSS-P: −5.54
SNP_A-1975928 (SLC2A9) genotype A_A
  mean of change in PANSS-P: −4.60
SNP_A-1975928 (SLC2A9) genotype A_B
  mean of change in PANSS-P: −4.79
SNP_A-1975928 (SLC2A9) genotype B_B*
  mean of change in PANSS-P: 6.19
SNP_A-1975928 (SLC2A9) genotype nonBB**
  mean of change in PANSS-P: −4.65
SNP_A-1987915 (GPR126) genotype A_A
  mean of change in PANSS-P: −3.53
SNP_A-1987915 (GPR126) genotype A_B
  mean of change in PANSS-P: −3.43
SNP_A-1987915 (GPR126) genotype B_B**
  mean of change in PANSS-P: −5.95
SNP_A-1987915 (GPR126) genotype nonBB*
  mean of change in PANSS-P: −3.45
SNP_A-2007721 (LOC58486) genotype A_A
  mean of change in PANSS-P: −1.70
SNP_A-2007721 (LOC58486) genotype A_B**
  mean of change in PANSS-P: −7.48
SNP_A-2007721 (LOC58486) genotype B_B
  mean of change in PANSS-P: −3.42
SNP_A-2007721 (LOC58486) genotype nonAB*
  mean of change in PANSS-P: −3.41
SNP_A-2044214 (HNT) genotype A_A
  mean of change in PANSS-P: −5.77
SNP_A-2044214 (HNT) genotype A_B*
  mean of change in PANSS-P: −2.08
SNP_A-2044214 (HNT) genotype B_B
  mean of change in PANSS-P: −5.64
SNP_A-2044214 (HNT) genotype nonAB**
  mean of change in PANSS-P: −5.73
SNP_A-2048427 (NPAS3) genotype A_A
  mean of change in PANSS-P: −6.16
SNP_A-2048427 (NPAS3) genotype A_B
  mean of change in PANSS-P: −6.26
SNP_A-2048427 (NPAS3) genotype B_B*
  mean of change in PANSS-P: −3.61
SNP_A-2048427 (NPAS3) genotype nonBB**
  mean of change in PANSS-P: −6.24
SNP_A-2070454 (NKX2-5) genotype A_A
  mean of change in PANSS-P: −4.04
SNP_A-2070454 (NKX2-5) genotype A_B
  mean of change in PANSS-P: −3.89
SNP_A-2070454 (NKX2-5) genotype B_B**
  mean of change in PANSS-P: −5.75
SNP_A-2070454 (NKX2-5) genotype nonBB*
  mean of change in PANSS-P: −3.94
SNP_A-2076797 (NUDT9P1) genotype A_A
  mean of change in PANSS-P: −2.57
SNP_A-2076797 (NUDT9P1) genotype A_B**
  mean of change in PANSS-P: −6.55
SNP_A-2076797 (NUDT9P1) genotype B_B
  mean of change in PANSS-P: −2.27
SNP_A-2076797 (NUDT9P1) genotype nonAB*
  mean of change in PANSS-P: −2.42
SNP_A-2103099 (HTR1A) genotype A_A
  mean of change in PANSS-P: −6.05
SNP_A-2103099 (HTR1A) genotype A_B*
  mean of change in PANSS-P: −2.88
SNP_A-2103099 (HTR1A) genotype B_B
  mean of change in PANSS-P: −5.88
SNP_A-2103099 (HTR1A) genotype nonAB**
  mean of change in PANSS-P: −5.95
SNP_A-2120958 genotype A_A
  mean of change in PANSS-P: −4.97
SNP_A-2120958 genotype A_B
  mean of change in PANSS-P: −4.92
SNP_A-2120958 genotype B_B*
  mean of change in PANSS-P: 1.49
SNP_A-2120958 genotype nonBB**
  mean of change in PANSS-P: −4.95
SNP_A-2170121 (C6) genotype A_A
  mean of change in PANSS-P: −3.49
SNP_A-2170121 (C6) genotype A_B**
  mean of change in PANSS-P: −6.98
SNP_A-2170121 (C6) genotype B_B
  mean of change in PANSS-P: −4.26
SNP_A-2170121 (C6) genotype nonAB*
  mean of change in PANSS-P: −3.56
SNP_A-2274533 (LZTS1) genotype A_A**
  mean of change in PANSS-P: −5.34
SNP_A-2274533 (LZTS1) genotype A_B
  mean of change in PANSS-P: −2.64
SNP_A-2274533 (LZTS1) genotype B_B
  mean of change in PANSS-P: −2.63
SNP_A-2274533 (LZTS1) genotype nonAA*
  mean of change in PANSS-P: −2.63
SNP_A-2283283 (XKR4) genotype A_A*
  mean of change in PANSS-P: −1.85
SNP_A-2283283 (XKR4) genotype A_B
  mean of change in PANSS-P: −4.92
SNP_A-2283283 (XKR4) genotype B_B
  mean of change in PANSS-P: −5.41
SNP_A-2283283 (XKR4) genotype nonAA**
  mean of change in PANSS-P: −5.12
SNP_A-2284243 (GRIA4) genotype A_A
  mean of change in PANSS-P: −5.09
SNP_A-2284243 (GRIA4) genotype A_B
  mean of change in PANSS-P: −5.09
SNP_A-2284243 (GRIA4) genotype B_B*
  mean of change in PANSS-P: −2.11
SNP_A-2284243 (GRIA4) genotype nonBB**
  mean of change in PANSS-P: −5.09
SNP_A-4204396 (CDH13) genotype A_A
  mean of change in PANSS-P: −4.76
SNP_A-4204396 (CDH13) genotype A_B
  mean of change in PANSS-P: −4.99
SNP_A-4204396 (CDH13) genotype B_B*
  mean of change in PANSS-P: 1.63
SNP_A-4204396 (CDH13) genotype nonBB**
  mean of change in PANSS-P: −4.85
SNP_A-4212785 (PPP1R3B) genotype A_A*
  mean of change in PANSS-P: 4.95
SNP_A-4212785 (PPP1R3B) genotype A_B
  mean of change in PANSS-P: −4.78
SNP_A-4212785 (PPP1R3B) genotype B_B
  mean of change in PANSS-P: −4.70
SNP_A-4212785 (PPP1R3B) genotype nonAA**
  mean of change in PANSS-P: −4.73
SNP_A-4230979 (ASB3) genotype A_A
  mean of change in PANSS-P: −2.80
SNP_A-4230979 (ASB3) genotype A_B
  mean of change in PANSS-P: −3.63
SNP_A-4230979 (ASB3) genotype B_B**
  mean of change in PANSS-P: −5.84
SNP_A-4230979 (ASB3) genotype nonBB*
  mean of change in PANSS-P: −3.45
SNP_A-4256833 (MLCK) genotype A_A
  mean of change in PANSS-P: −4.59
SNP_A-4256833 (MLCK) genotype A_B*
  mean of change in PANSS-P: −2.78
SNP_A-4256833 (MLCK) genotype B_B
  mean of change in PANSS-P: −5.14
SNP_A-4256833 (MLCK) genotype nonAB**
  mean of change in PANSS-P: −5.10
SNP_A-4258279 (RRM1) genotype A_A
  mean of change in PANSS-P: −5.01
SNP_A-4258279 (RRM1) genotype A_B*
  mean of change in PANSS-P: −0.85
SNP_A-4258279 (RRM1) genotype B_B
  mean of change in PANSS-P: −5.25
SNP_A-4258279 (RRM1) genotype nonAB**
  mean of change in PANSS-P: −5.24
